Measurements as given in US7429564B2, “Oral insulin therapy” (Emisphere Technologies, Inc., priority 2002, dated 2008).

Columns and labels:
[1] = Delivery agent plasma concentrations in humans after oral delivery agent capsules; assay type: in vivo, human; conditions: plasma; oral capsules, 750 mg, healthy human volunteers
Experimental: Delivery agents 1-3 were investigated for their ability to penetrate the GI mucosa. The plasma concentration of each delivery agent was measured in human subjects after oral administration of delivery agent loaded capsules as a measure of each delivery agent's penetration efficiency.
Blood sampling for plasma delivery agent concentration determination (2 mL in sodium heparin tube) were drawn 15 minutes before dosing, and at 5, 10, 15, 30, and 45 minutes and 1, 1.5, 2, 3, 4, 6, 8, and 12 hours post-dose (14 samples per treatment) for delivery agent measurements in all treatment groups.
Two 18-gauge IV lines were situated prior to dosing; one for blood sampling, and the other for potential infusion of 20% glucose for subjects in groups 2 and 3. The subjects in group 1 only had one cannula inserted. The blood samples were centrifuged at 3000 rpm for a period of fifteen minutes at a temperature from about 2° C. to 8° C., within one hour of sample collection. Using a plastic pipette and without disturbing the red cell layer, the plasma from the collection tube was pipetted in duplicate for each analysis, blood glucose, Human Insulin, C-peptide, delivery agent into pre-labeled polypropylene tubes. The samples were stored at −70° C. until analysis.
The indicated doses were ingested by healthy human volunteers and the plasma concentrations of the delivery agents were monitored over time and the area under the curve (AUC) calculated. […] Similarly, oral administration of 800 mg of delivery agent number 3 produced more than a 23 fold greater penetration of the GI mucosa in humans than did oral administration of 750 mg of delivery agent 2 having n equal to 9 alkyl.

serum glucose = experiment: Effective clinical dose of delivery agent in humans (delivery efficiency); assay type: in vivo, human; conditions: active agent heparin
Experimental: Next, delivery agents 1-3 were compared for the ability to efficiently transport an active agent across the GI mucosa in a biologically active form by determining the relationship between delivery agent dose, dose of active agent and the glucose response. The effective dose of delivery agent necessary to deliver a therapeutic dose of active agent and produce a therapeutic effect was measured. For delivery agent 3, the active agent was insulin, and the therapeutic effect was determined by the ability of the delivery agent/insulin combination to lower serum glucose by at least 10% within one hour post administration. For delivery agents 1 and 2, the active agent was heparin, and the therapeutic effect was determined by […]

[2] = Delivery agent plasma concentrations in monkeys after oral administration; assay type: in vivo; conditions: monkey, plasma, oral, 300 mg
Experimental: Similar results were obtained when delivery agents 1-3 were administered orally to monkeys and the plasma concentrations of the delivery agents monitored over time and the AUC calculated.

blood glucose = experiment: Example 7: postprandial blood glucose excursions after standardized breakfast, type 2 diabetic patients; assay type: in vivo, human
Experimental: A randomized, 3-period crossover, double-blind, double-dummy study was conducted in order to compare the effect (i.e., the postprandial pharmacokinetic and pharmacodynamic profiles) of an oral insulin formulation with that of s.c. administered short acting insulin on postprandial blood glucose excursions in Type 2 Diabetic subjects without any antidiabetic medication.
All patients received the same oral and SC injection treatments in a randomized sequence. […]
Blood samples for blood glucose determination (0.25 mL per sample) were taken at −1 min (baseline), 5 minutes after start of meal intake and thereafter in 5 minute intervals until 120 minutes, 10 minute intervals until 240 minutes, and 15 minute intervals until 360 minutes after start of meal intake (45 samples per session). Blood glucose concentrations were measured immediately after sample collection using an automated GOD method (Super GL Ambulance Glucose Analyzer, Ruhrtal Labortechnik, Delecke-Möhnesee, Germany). […]
For pharmacodynamic assessment, the following parameters were calculated: Maximal blood glucose excursion (BGmax), time to BGmax (tBGmax) Area under the blood glucose excursion curve in defined time-intervals (AUCBG 0-1h, AUCBG 0-2h, AUCBG 0-3h, AUCBG 0-4h, AUCBG 0-6h), maximal absolute blood glucose concentrations (BGabsmax), time to BGabsmax (tBGabsmax). […]

Molecule	AUC [1]	Effective clinical dose of delivery agent (serum glucose)	AUC [2]	Mean fasting blood glucose at baseline (−1 minute) (blood glucose; 12 U SC, dosed 15 min before meal, mean (range))	Time to maximal glucose excursion (median) (blood glucose; SC 12 U, 15 min before meal)
O=C(O)CCCCCCCNC(=O)c1ccccc1O [1 (SNAC), reference compound]	3500 ng·h/mL	2400 Mg	45 ng·h/mL		
SC short-acting insulin: subcutaneous injected short acting insulin, Humalog injection 100 U/ml from Eli Lilly				143.11 mg/dL	1.3 h
O=C(O)CCCCCCCCCNC(=O)c1ccccc1O [2 (SNAD), reference compound]	2040 ng·h/mL	1500 Mg	82 ng·h/mL		
